Laboratory results published in US20230159510A1, “NOVEL PRMT5 INHIBITORS” (AMGEN INC., priority 2020, published 2023).

Legend:
HCT116 MTAP null cells = experiment: HCT116 proliferation assay, MTAP null cells (CellTiter-Glo, 6 days); format: cell-based; settings: HCT116-MTAP null, 144 h, read-out: Protif_ HCT116-MTAP null IC50
Summary of the method: (§1)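 Seed cells in RPMI 1640 supplemented with 10% FBS and incubate overnight at 37° C under 5% CO2. Treat with serially diluted compound (threefold steps, 8 or 9 points, highest 1 or 10 µM) or DMSO alone, then quantify viability by luminescence.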

PRMT5/MEP50 = PRMT5/MEP50 (Homo sapiens, UniProt O14744); experiment: MTase-Glo methyl transferase assay, Method A (Histone H4 peptide, 1 µM MTA, 24 h pre-incubation); format: biochemical; set-up: made in house; settings: read-out: PRMT5 MTase Glo Ki (nM, Meth. A)
Protocol: Method A: The PRMT5 inhibitory activity of test compounds was determined using the MTase-Glo™ assay (Promega), which monitors the product (S-adenosyl homocysteine or SAH) of methyltransferase reactions. The PRMT5 MTase-Glo assay was conducted in a 384-well white ProxiPlate (PerkinElmer) in a total volume of 12 µL. The PRMT5 enzymatic reaction (in 4 µL) contained 10 nM PRMT5/MEP50 (produced at Amgen), 5 µM S-adenosyl methionine (SAM, Promega), 1 µM Histone H4 (1-21)-Lys(Biotin) (Anaspec), 1 µM 5′-methylthioadenosine (MTA, Sigma) and two-fold serially diluted compounds in a reaction buffer of 50 mM Tris (pH 8.0), 50 mM NaCl, 0.01% Tween 20, 0.01% BSA, and 1 mM DTT. Test compounds were pre-incubated with PRMT5/MEP50, SAM, and MTA for 24 hours before addition of Histone H4 peptide to initiate the PRMT5 reaction. The reaction was allowed to proceed for 2 hours at room temperature and was then terminated by addition of 2 µL of 3X MTase-Glo™ Reagent (Promega) and 150 µM EPZ015666 (Sigma). After a 30-minute incubation at room temperature, 6 µL of MTase-Glo™ Detection Solution (Promega) was added and the plate was incubated at room temperature for an additional 30 minutes. The light signal corresponding to the amount of SAH produced by the PRMT5 reaction was subsequently measured using an Envision multimode reader (PerkinElmer). IC50 and KI values were obtained by analyzing dose-response curves using Genedata Screener (Genedata).

HCT116 WT cells = experiment: HCT116 proliferation assay, WT cells (CellTiter-Glo, 6 days); format: cell-based; settings: Homo sapiens, HCT-116, 144 h, read-out: Prolif_HCT116-WT IC50
Summary of the method: as §1

Sequence of PRMT5/MEP50 (O14744 whole entry): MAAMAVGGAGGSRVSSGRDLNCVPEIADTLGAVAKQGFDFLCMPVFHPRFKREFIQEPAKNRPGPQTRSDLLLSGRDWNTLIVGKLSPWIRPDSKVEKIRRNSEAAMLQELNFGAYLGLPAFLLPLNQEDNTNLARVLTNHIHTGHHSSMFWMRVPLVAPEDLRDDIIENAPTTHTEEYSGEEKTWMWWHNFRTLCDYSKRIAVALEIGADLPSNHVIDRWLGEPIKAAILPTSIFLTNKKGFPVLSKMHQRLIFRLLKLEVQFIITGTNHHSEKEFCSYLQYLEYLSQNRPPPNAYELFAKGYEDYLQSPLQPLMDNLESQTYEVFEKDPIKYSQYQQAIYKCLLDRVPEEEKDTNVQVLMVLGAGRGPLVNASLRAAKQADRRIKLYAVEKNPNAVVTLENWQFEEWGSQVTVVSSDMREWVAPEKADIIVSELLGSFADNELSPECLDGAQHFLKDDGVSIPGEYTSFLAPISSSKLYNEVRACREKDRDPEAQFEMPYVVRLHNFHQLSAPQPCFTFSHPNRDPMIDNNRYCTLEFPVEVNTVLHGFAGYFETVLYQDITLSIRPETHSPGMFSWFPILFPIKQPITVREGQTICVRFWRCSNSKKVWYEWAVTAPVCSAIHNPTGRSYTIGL
Sequence of PRMT5/MEP50 (Q9BQA1 whole entry partner): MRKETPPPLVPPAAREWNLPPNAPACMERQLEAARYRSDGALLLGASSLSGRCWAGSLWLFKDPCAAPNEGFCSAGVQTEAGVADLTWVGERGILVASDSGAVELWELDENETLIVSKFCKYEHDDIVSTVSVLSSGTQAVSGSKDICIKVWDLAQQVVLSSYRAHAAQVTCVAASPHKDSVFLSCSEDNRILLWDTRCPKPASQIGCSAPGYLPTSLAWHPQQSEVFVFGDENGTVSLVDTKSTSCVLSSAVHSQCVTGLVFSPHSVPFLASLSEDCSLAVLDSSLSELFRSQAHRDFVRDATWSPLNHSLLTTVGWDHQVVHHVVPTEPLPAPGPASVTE

Row | IC50 (HCT116 MTAP null cells) [nM] | Ki (PRMT5/MEP50) [nM] | IC50 (HCT116 WT cells) [nM] | Compound
1 | 683 | 1.23 | – | Cc1cc2cc(C(=O)N(Cc3ncccc3F)[C@@H]3CCc4nc(C(F)(F)F)ccc43)ccc2nc1N (single isomer, unassigned) [Example 463]
2 | 24 | < 0.1 | – | Cc1cc2cc(C(=O)N(Cc3ccc(Br)c(C)n3)[C@H](C)c3ncccn3)ccc2nc1N (single isomer, unassigned) [Example 465]
3 | 660 | 0.83 | – | COc1cnc(CN(C(=O)c2ccc3nc(N)c(C)cc3c2)[C@H](C)c2ncccn2)cn1 (single isomer, unassigned) [Example 476]
4 | 594 | 0.31 | – | COc1ccc(CN(C(=O)c2cnc3nc(N)c(Br)cc3c2)[C@H](C)c2ncccn2)nn1 (single isomer, unassigned) [Example 478]
5 | 533 | – | > 10000 | Cc1cc2cc(C(=O)N(Cc3ccc(C(C)(C)O)cn3)[C@H](C)c3ncccn3)ccc2nc1N [Example 801, 2-amino-N-((5-(2-hydroxy-2-propanyl)-2-pyridinyl)methyl)-3-methyl-N-((1R)-1-(2-pyrimidinyl)ethyl)-6-quinolinecarboxamide]
6 | 226 | – | 5770 | Cc1cc2cc(C(=O)N(Cc3ccc(C(F)(F)F)cn3)Cc3ncccc3F)c(Cl)cc2nc1N [Example 804, 2-amino-7-chloro-N-((3-fluoro-2-pyridinyl)methyl)-3-methyl-N-((5-(trifluoromethyl)-2-pyridinyl)methyl)-6-quinolinecarboxamide]
7 | 144 | – | 2000 | Cc1cc2cc(C(=O)N(Cc3ccc(C(F)(F)F)cn3)C(c3ncccn3)C(C)C)ccc2nc1N (stereo not drawn) [Example 805, 2-amino-3-methyl-N-(2-methyl-1-(pyrimidin-2-yl)propyl)-N-((5-(trifluoromethyl)pyridin-2-yl)methyl)quinoline-6-carboxamide]
8 | 552 | – | 6800 | Cc1cc2cc(C(=O)N(Cc3ccc(C(F)(F)F)cn3)C(C)c3cccc(C#N)n3)ccc2nc1N (stereo not drawn) [Example 806, 2-amino-N-(1-(6-cyanopyridin-2-yl)ethyl)-3-methyl-N-((5-(trifluoromethyl)pyridin-2-yl)methyl) quinoline-6-carboxamide]
9 | 75 | – | 764 | Cc1cc2cc(C(=O)N(Cc3cc(Cl)c(C#N)cn3)[C@H](C)c3ncccn3)ccc2nc1N [Example 807, (R)-2-amino-N-((4-chloro-5-cyanopyridin-2-yl)methyl)-3-methyl-N-(1-(pyrimidin-2-yl)ethyl)quinoline-6-carboxamide]
10 | 454 | – | 19900 | C[C@H](c1ncccn1)N(Cc1ccc(C(F)(F)F)nn1)C(=O)c1cnc2nc(N)c(I)cc2c1 [Example 808, (R)-7-amino-6-iodo-N-(1-(pyrimidin-2-yl)ethyl)-N-((6-(trifluoromethyl)pyridazin-3-yl)methyl)-1,8-naphthyridine-3-carboxamide]
11 | 18 | – | 368 | Cc1cc2cc(C(=O)N(Cc3ccc(C(F)(F)F)cn3)[C@@H]3CCC[C@H]3OC(F)F)ccc2nc1N [Example 816, 2-amino-N-((1R,2R)-2-(difluoromethoxy)cyclopentyl)-3-methyl-N-((5-(trifluoromethyl)pyridin-2-yl)methyl)quinoline-6-carboxamide]
12 | 19 | – | 372 | Cc1cc2cc(C(=O)N(Cc3ccc(C4CC4)cn3)[C@H](C)c3ncccn3)ccc2nc1N [Example 821, (R)-2-amino-N-((5-cyclopropylpyridin-2-yl)methyl)-3-methyl-N-(1-(pyrimidin-2-yl)ethyl)quinoline-6-carboxamide]
13 | 45 | – | 763 | COC(=O)N1CCC(c2ccc(CN(C(=O)c3ccc4nc(N)c(C)cc4c3)[C@H](C)c3ncccn3)nc2)CC1 [Example 822, methyl (R)-4-(6-((2-amino-3-methyl-N-(1-(pyrimidin-2-yl)ethyl)quinoline-6-carboxamido)methyl)pyridin-3-yl)piperidine-1-carboxylate]
14 | 41 | – | 695 | Cc1cc2cc(C(=O)N(Cc3ccc(N4CCOCC4)nn3)[C@H](C)c3ncccc3F)ccc2nc1N [Example 823, 2-Amino-N-((1R)-1-(3-fluoro-2-pyridinyl)ethyl)-3-methyl-N-((6-(4-morpholinyl)-3-pyridazinyl)methyl)-6-quinolinecarboxamide]
15 | 607 | – | > 10000 | CNc1ccc(CN(C(=O)c2ccc3nc(N)c(C)cc3c2)[C@H](C)c2ncccc2F)nn1 [Example 824, 2-Amino-N-((1R)-1-(3-fluoro-2-pyridinyl)ethyl)-3-methyl-N-((6-(methylamino)-3-pyridazinyl)methyl)-6-quinolinecarboxamide]
16 | 880 | – | > 1000 | N#Cc1ccc(CN(C(=O)c2ccc3nc(N)c(Br)cc3c2)C2CCCC2C#N)nc1 (stereo not drawn) [Example 827, 2-amino-3-bromo-N-(2-cyanocyclopentyl)-N-((5-cyanopyridin-2-yl)methyl)quinoline-6-carboxamide]
17 | 910 | – | > 10000 | N#CC1(CN(Cc2ccc(C(F)(F)F)cn2)C(=O)c2ccc3nc(N)c(Br)cc3c2)CC1 [Example 828, 2-amino-3-bromo-N-((1-cyanocyclopropyl)methyl)-N-((5-(trifluoromethyl)pyridin-2-yl)methyl)quinoline-6-carboxamide]
18 | 840 | – | > 10000 | CO[C@@H]1COCC[C@H]1N(Cc1ccc(C(F)(F)F)cn1)C(=O)c1ccc2nc(N)c(Br)cc2c1 [Example 829, 2-amino-3-bromo-N-((3S,4R)-3-methoxytetrahydro-2H-pyran-4-yl)-N-((5-(trifluoromethyl)pyridin-2-yl)methyl) quinoline-6-carboxamide]
19 | 380 | – | > 10000 | CC1COCCC1N(Cc1ccc(C(F)(F)F)cn1)C(=O)c1ccc2nc(N)c(Br)cc2c1 (stereo not drawn) [Example 830, 2-amino-3-bromo-N-(3-methyltetrahydro-2H-pyran-4-yl)-N-((5-(trifluoromethyl)pyridin-2-yl)methyl)quinoline-6-carboxamide]
20 | 440 | – | > 10000 | CC1CCCC1N(Cc1ccc(C(F)(F)F)cn1)C(=O)c1ccc2nc(N)c(Br)cc2c1 (stereo not drawn) [Example 831, 2-amino-3-bromo-N-(2-methylcyclopentyl)-N-((5-(trifluoromethyl)pyridin-2-yl)methyl)quinoline-6-carboxamide]
21 | 380 | – | > 10000 | Nc1nc2ccc(C(=O)N(Cc3ccc(C(F)(F)F)cn3)C3CCOC3C3CC3)cc2cc1Br (stereo not drawn) [Example 832, 2-amino-3-bromo-N-(2-cyclopropyltetrahydrofuran-3-yl)-N-((5-(trifluoromethyl)pyridin-2-yl)methyl)quinoline-6-carboxamide]
22 | 523 | – | 3190 | CC(C)CN(Cc1ccc(C(F)(F)F)cn1)C(=O)c1ccc2nc(N)c(-c3ccccc3)cc2c1 [Example 834, 2-Amino-N-(2-methylpropyl)-3-phenyl-N-((5-(trifluoromethyl)-2-pyridinyl)methyl)-6-quinolinecarboxamide]
23 | 448 | – | 8010 | Cc1cc2cc(C(=O)N(Cc3ccc(C(F)(F)F)cn3)CC(C)C)c(O)cc2nc1N [Example 835, 2-Amino-7-hydroxy-3-methyl-N-(2-methylpropyl)-N-((5-(trifluoromethyl)-2-pyridinyl)methyl)-6-quinolinecarboxamide]
24 | 42 | – | 2170 | N#CC[C@@H](C1CC1)N(Cc1ccc(C#N)cn1)C(=O)c1ccc2nc(N)c(I)cc2c1 [Example 837, (S)-2-amino-N-(2-cyano-1-cyclopropylethyl)-N-((5-cyanopyridin-2-yl)methyl)-3-iodoquinoline-6-carboxamide]
25 | 56 | – | 1650 | C[C@H](c1ncccn1)N(Cc1ccc(C(F)(F)F)cn1)C(=O)c1cnc2nc(N)c(I)cc2c1 [Example 838, (R)-7-amino-6-iodo-N-(1-(pyrimidin-2-yl)ethyl)-N-((5-(trifluoromethyl)pyridin-2-yl)methyl)-1,8-naphthyridine-3-carboxamide]
26 | 57 | – | 1990 | C[C@H](c1ncn(C)n1)N(Cc1ccc(C(F)F)cn1)C(=O)c1ccc2nc(N)c(I)cc2c1 [Example 839, (R)-2-amino-N-((5-(difluoromethyl)pyridin-2-yl)methyl)-3-iodo-N-(1-(1-methyl-1H-1,2,4-triazol-3-yl)ethyl)quinoline-6-carboxamide]
27 | 90 | – | 5500 | Cc1nc(CN(C(=O)c2cnc3nc(N)c(I)cc3c2)[C@H](C)c2ncccn2)ccc1C#N [Example 840, (R)-7-amino-N-((5-cyano-6-methylpyridin-2-yl)methyl)-6-iodo-N-(1-(pyrimidin-2-yl)ethy1)-1,8-naphthyridine-3-carboxamide]
